{
  "source": "paper PMC5952258",
  "about": "“Identification of a Mycothiol-Dependent Nitroreductase from Mycobacterium tuberculosis” (ACS Infectious Diseases, 2018)",
  "biological_target": "Rv2466c (rRv2466c; Mrx-2) (Mycobacterium tuberculosis, UniProt O53193)",
  "sequence (O53193 whole entry)": "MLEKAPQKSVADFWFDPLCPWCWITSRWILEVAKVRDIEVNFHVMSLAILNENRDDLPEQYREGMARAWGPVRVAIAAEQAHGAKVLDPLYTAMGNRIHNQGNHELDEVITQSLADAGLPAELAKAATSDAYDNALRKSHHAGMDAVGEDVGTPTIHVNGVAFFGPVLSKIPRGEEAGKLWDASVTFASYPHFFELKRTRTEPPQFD",
  "data": [
    {"smiles": "CC(=O)N[C@@H](CSSC[C@H](NC(C)=O)C(=O)N[C@H]1[C@@H](O[C@@H]2[C@H](O)[C@H](O)[C@@H](O)[C@H](O)[C@H]2O)O[C@H](CO)[C@@H](O)[C@@H]1O)C(=O)N[C@H]1[C@@H](O[C@@H]2[C@H](O)[C@H](O)[C@@H](O)[C@H](O)[C@H]2O)O[C@H](CO)[C@@H](O)[C@@H]1O", "note": "[mycothione]", "values": [
      {"measurement": "melting temperature shift", "value": "MSSM also caused a significant shift in the melting temperature"}
    ]}
  ]
}
